From US8338598B2, “Herbicidal pyrido[2,3-B]pyrazines and their use as herbicides” (Syngenta Limited, priority 2008, dated 2012)

The molecules below were run on test plants (assay: Example B1 herbicidal action, post-emergence, overall statement on the test plants). Details: Example B1 protocol, 1000 g/ha, result in words.
Type: in vivo
Protocol: Seeds of a variety of test species were sown in sterilised standard soil in seed trays each having 96 cells. After cultivation for 8 to 9 days cultivation (post-emergence) under controlled conditions in a climatic chamber (cultivation at 23/17° C., day/night; 13 hours light; 50-60% humidity), the plants were treated with an aqueous spray solution of 1000 mg/l of the active ingredient dissolved in 10% DMSO (dimethyl sulfoxide, CAS RN 67-68-5) as a solvent, equivalent to 1000 g/ha. The plants were grown in the climatic chamber after application at (24/19° C., day/night; 13 hours light; 50-60% humidity) and watered twice daily. After 9 days until the test was evaluated (10=total damage to plant, 0=no damage to plant)

SMILES	damage to the test plants
Cc1cc(-c2c(O)c3nccnc3[nH]c2=O)on1 [Compound B13]	little or no damage
CCOc1c(-c2cc(C)n(CC)n2)c(=O)n(CC)c2nccnc12 [Compound B22]	little or no damage
Cc1nc(Cl)sc1-c1c(O)c2nccnc2[nH]c1=O [Compound B1, 7-(2-chloro-4-methyl-thiazol-5-yl)-8-hydroxy-5H-pyrido[2,3-b]pyrazin-6-one]	little or no damage
CC(C)(C)C(=O)Oc1c(-c2c(Cl)ccnc2Cl)c(=O)[nH]c2nccnc12 [Compound A17, 2,2-Dimethyl-propionic acid 7-(2,4-dichloro-pyrid-3-yl)-6-oxo-5,6-dihydro-pyrido[2,3-b]pyrazin-8-yl ester]	little or no damage
Cc1cc(-c2c(O)c3nccnc3[nH]c2=O)[nH]n1 [Compound B14]	little or no damage
CCn1c(=O)c(-c2cc(C)no2)c(OC(=O)C(C)C)c2nccnc21 [Compound B21]	little or no damage
CC(C)C(=O)Oc1c(-c2cc(C(F)(F)F)no2)c(=O)[nH]c2nccnc12 [Compound B7, isobutyric acid 6-hydroxy-7-(3-trifluoromethyl-isoxazol-5-yl)-pyrido[2,3-b]pyrazin-8-yl ester]	little or no damage
Cc1noc(-c2c(OC(=O)C(C)C)c3nccnc3n(C)c2=O)n1 [Compound B6, isobutyric acid 5-methyl-7-(3-methyl-1,2,4-oxadiazol-5-yl)-6-oxo-5,6-dihydro-pyrido[2,3-b]pyrazin-8-yl ester]	little or no damage
O=c1[nH]c2nccnc2c(O)c1-c1ncc(C(F)(F)F)cc1Cl [Compound A29]	little or no damage
Cc1cc(-c2c(OC(=O)C(C)C)c3nccnc3[nH]c2=O)[nH]n1 [Compound B18]	little or no damage
Cc1cc(-c2c(OC(=O)C(C)(C)C)c3nccnc3[nH]c2=O)[nH]n1 [Compound B19]	little or no damage
O=c1[nH]c2nccnc2c(O)c1-c1ccno1 [Compound B15]	little or no damage
Oc1nc2nccnc2c(O)c1-c1ncc(Cl)cc1Cl [Compound A1, 7-(3,5-dichloro-pyrid-2-yl)-pyrido[2,3-b]pyrazine-6,8-diol]	little or no damage
Cc1cc(-c2c(OC(=O)C(C)(C)C)c3nccnc3[nH]c2=O)on1 [Compound B17]	little or no damage
CCOC(=O)Oc1c(-c2ncc(Cl)cc2Cl)c(=O)[nH]c2nccnc12 [Compound A3, Carbonic acid 7-(3,5-dichloro-pyrid-2-yl)-6-oxo-5,6-dihydro-pyrido[2,3-b]pyrazin-8-yl ester ethyl ester]	little or no damage
CCn1c(=O)c(-c2cc(C)no2)c(OC(=O)C(C)(C)C)c2nccnc21 [Compound B20]	little or no damage
Cc1cc(-c2c(OC(=O)C(C)C)c3nccnc3[nH]c2=O)on1 [Compound B16]	little or no damage
Cc1cc(-c2c(O)c3nccnc3[nH]c2=O)n2nc(C)cc2n1 [Compound C1]	little or no damage
CS(=O)(=O)Oc1c(-c2ncc(Cl)cc2Cl)c(=O)[nH]c2nccnc12 [Compound A4, methanesulfonic acid 7-(3,5-dichloro-pyrid-2-yl)-6-oxo-5,6-dihydro-pyrido[2,3-b]pyrazin-8-yl ester]	little or no damage
CC(C)C(=O)Oc1c(-c2ncc(Cl)cc2Cl)c(O)nc2nccnc12 [Compound A5, isobutyric acid 7-(3,5-dichloro-pyrid-2-yl)-6-oxo-5,6-dihydro-pyrido[2,3-b]pyrazin-8-yl ester]	little or no damage
O=c1[nH]c2nccnc2c(O)c1-c1ncc(Cl)cc1F [Compound A28]	little or no damage
Cc1cc(-c2c(OC(=O)C(C)(C)C)c3nccnc3n(C)c2=O)n2nc(C)cc2n1 [Compound C3]	little or no damage
